This note sets out measurements from PubChem BioAssay (NCI).

Some test systems named below: SNB-19 CNS; HCC-2998 colon; SF-539 CNS; MDA-MB-231 breast; HOP-62 NSCLC; EKVX NSCLC; HCT-116 colon; MOLT-4 leukemia; MDA-MB-435; UO-31 renal.
Assay in all cases: NCI anticancer screen, dose series, 48 h

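Following 48 hours of exposure in 96-well plates, responses at five concentrations were used to interpolate endpoints linearly. The concentration for full growth arrest is given as TGI.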 A value given as a limit tells only on which side of the number the result lay.

In the case of `CCN(CC)CC1CCCCN1CC(=O)N1c2ccccc2NC(=O)CC1C` (stereo unspecified), the TGI with SNB-19 CNS, with HCC-2998 colon, with SF-539 CNS, with MDA-MB-231 breast, with HOP-62 NSCLC and in the assay on EKVX NSCLC was greater than 100 µM in each case. Moreover, the TGI with HCT-116 colon, in the assay with MOLT-4 leukemia, with MDA-MB-435 and in the assay with UO-31 renal was greater than 100 µM throughout.

With `O=[N+]([O-])C1CC/C(=N/O)c2nonc21` (stereo unspecified), the TGI with SNB-19 CNS, with HCC-2998 colon, in the assay on SF-539 CNS, in the assay with MDA-MB-231 breast, with HOP-62 NSCLC and in the assay on EKVX NSCLC was greater than 10 µM each time. Also, the TGI in the assay with HCT-116 colon, with MOLT-4 leukemia, in the assay with MDA-MB-435 and in the assay with UO-31 renal was greater than 10 µM each time.

Take `CC1(C)N=C(C(N)=O)c2ncn(N)c2N1`: the TGI in the assay with SNB-19 CNS, with HCC-2998 colon, with SF-539 CNS, with MDA-MB-231 breast, in the assay on HOP-62 NSCLC and in the assay on EKVX NSCLC was greater than 100 µM each time. Also, the TGI in the assay on HCT-116 colon and in the assay with MDA-MB-435 was greater than 100 µM each time.

With `CCCCc1ccc(Nc2nc3c(ncn3C3CC(O)C(CN=[N+]=[N-])O3)c(=O)[nH]2)cc1` (stereo unspecified), the TGI in the assay with SNB-19 CNS, in the assay with HCC-2998 colon, in the assay on MDA-MB-231 breast, with HOP-62 NSCLC, in the assay with EKVX NSCLC and in the assay with HCT-116 colon was greater than 100 µM throughout. The TGI in the assay on MOLT-4 leukemia, in the assay on MDA-MB-435 and in the assay with UO-31 renal was greater than 100 µM in each case.

For `COc1ccc2nc3ccc(OC)cc3c(SCCO)c2c1`, the TGI is greater than 100 µM in the assay with SNB-19 CNS; greater than 100 µM in the assay on HCC-2998 colon; greater than 72.4 µM with SF-539 CNS; greater than 100 µM in the assay with MDA-MB-231 breast; greater than 100 µM in the assay on HOP-62 NSCLC; greater than 100 µM with EKVX NSCLC. Besides, the TGI in the assay on HCT-116 colon was greater than 69.8 µM; in the assay with MOLT-4 leukemia, greater than 30.3 µM; in the assay on MDA-MB-435, greater than 100 µM; in the assay with UO-31 renal it was greater than 100 µM.

Take `O=CN1CCN(C(=O)c2ccc(Cl)cc2Cl)C1=S`: the TGI in the assay on SNB-19 CNS, with HCC-2998 colon, with SF-539 CNS, in the assay on MDA-MB-231 breast, in the assay on HOP-62 NSCLC and in the assay with EKVX NSCLC was greater than 100 µM in each case. Moreover, the TGI with HCT-116 colon, with MOLT-4 leukemia and with MDA-MB-435 was greater than 100 µM in each case.

Consider `CCCCCCCCOC1C(O)C(O)C(O)C(O)C12CO2` (stereo unspecified), for which the TGI with SNB-19 CNS, with HCC-2998 colon, in the assay with SF-539 CNS, with MDA-MB-231 breast, in the assay on HOP-62 NSCLC and in the assay on HCT-116 colon was greater than 100 µM in each case. In addition, the TGI with MOLT-4 leukemia, with MDA-MB-435 and in the assay on UO-31 renal was greater than 100 µM throughout.

Consider `CC(=O)N=C1N(/C=C2\C(=O)Oc3ccccc3C2=O)C(=O)/C(=C/c2ccc(OC(C)=O)cc2)N1C`, for which the TGI in the assay with HCC-2998 colon, in the assay on SF-539 CNS, in the assay with MDA-MB-231 breast, in the assay on HOP-62 NSCLC, in the assay on EKVX NSCLC and in the assay with HCT-116 colon was greater than 100 µM in each case. Further, the TGI in the assay on MOLT-4 leukemia and with MDA-MB-435 was greater than 100 µM each time.

Take `COC(=O)C1C/C(=C/N(C)C)C(=S)N1` (stereo unspecified): the TGI with SNB-19 CNS, in the assay on HCC-2998 colon, with MDA-MB-231 breast, in the assay with HOP-62 NSCLC, in the assay with EKVX NSCLC and in the assay on HCT-116 colon was greater than 100 µM throughout. In addition, the TGI in the assay with MOLT-4 leukemia, in the assay on MDA-MB-435 and in the assay with UO-31 renal was greater than 100 µM in each case.

Consider `COC(=O)CCC(=O)NC1=C(NCc2ccccc2)C(=O)c2ccccc2C1=O`, for which the TGI with SNB-19 CNS is greater than 100 µM; in the assay on HCC-2998 colon, greater than 100 µM; in the assay with SF-539 CNS, 43.8 µM; with MDA-MB-231 breast it was 85.7 µM; in the assay on EKVX NSCLC it was greater than 100 µM; with HCT-116 colon, greater than 100 µM. The results for the TGI in the assay with MOLT-4 leukemia, in the assay on MDA-MB-435 and with UO-31 renal were greater than 100 µM, 34.9 µM and greater than 100 µM, respectively.

`Oc1ccc(-c2nc(-c3cccnc3)c(-c3ccc(Cl)cc3)[nH]2)cc1O`: the TGI in the assay on SNB-19 CNS came out at 27.1 µM; with HCC-2998 colon, 26.6 µM; in the assay on MDA-MB-231 breast it was 47.8 µM; in the assay on HOP-62 NSCLC, 25.3 µM; in the assay on EKVX NSCLC, 50.2 µM; in the assay on HCT-116 colon it was 26.7 µM. Besides, the TGI in the assay with MOLT-4 leukemia is greater than 100 µM; in the assay with MDA-MB-435 it was 30.3 µM; in the assay with UO-31 renal, 26.8 µM.

Consider `COC(=O)C1=C(C(=O)OC)C(C(=O)c2ccc(Br)cc2)N2N=C(c3ccc(Cl)cc3)C=CC12` (stereo unspecified), for which the TGI in the assay with SNB-19 CNS, in the assay with HCC-2998 colon, with MDA-MB-231 breast, in the assay on HOP-62 NSCLC, with EKVX NSCLC and in the assay on HCT-116 colon was greater than 100 µM in each case. Also, the TGI in the assay on MOLT-4 leukemia, in the assay with MDA-MB-435 and in the assay on UO-31 renal was greater than 100 µM in each case.

In the case of `Cc1ccsc1/C=N/Nc1nc2ccccc2s1`, the TGI with SNB-19 CNS is 26.9 µM; with HCC-2998 colon it was greater than 100 µM; with MDA-MB-231 breast it was 27.5 µM; with HOP-62 NSCLC, 22.4 µM; in the assay with EKVX NSCLC it was 41.9 µM; in the assay on HCT-116 colon, 23.2 µM. The results for the TGI with MOLT-4 leukemia, in the assay with MDA-MB-435 and in the assay on UO-31 renal were 31.3 µM, greater than 100 µM and greater than 100 µM, respectively.

As for `O=C(c1ccccc1)N1CCN(C(=S)N(C(=O)c2ccccc2)c2ccccc2)C1=S`, the TGI was 26.3 µM with SNB-19 CNS; 14.5 µM in the assay on HCC-2998 colon; 7.07 µM in the assay with SF-539 CNS; greater than 42.5 µM in the assay on MDA-MB-231 breast; 26.3 µM in the assay on HOP-62 NSCLC; 19.5 µM with EKVX NSCLC. The TGI was 12.6 µM in the assay on HCT-116 colon, 12.2 µM in the assay with MDA-MB-435 and 6.43 µM with UO-31 renal.

Regarding `COC(=O)/C(=C\Nc1cccc(C)n1)S(=O)(=O)c1ccc(C)cc1`, the TGI with SNB-19 CNS, in the assay on HCC-2998 colon, in the assay with SF-539 CNS, with MDA-MB-231 breast, in the assay on HOP-62 NSCLC and in the assay on HCT-116 colon was greater than 100 µM throughout. The results for the TGI in the assay on MOLT-4 leukemia, in the assay on MDA-MB-435 and with UO-31 renal were 70.4 µM, greater than 100 µM and greater than 100 µM, respectively.
